Data reported in US7041677B2, “Use of monochloroflosequinan in the treatment of sexual dysfunction” (R.T. Alamo Ventures I, LLC, priority 2002, dated 2006).

Key:
[1] = Plasma levels following oral administration; format: in vivo
PDE5 = target: T1, PDE5 (Homo sapiens, UniProt O76074); test: PDE5 enzyme inhibition assay; format: biochemical; settings: 25° C., 1% DMSO vehicle
T1 construct: PDE5 partially purified from human platelets was used; from tissue; host or cells: human platelets
Description: (§1) In this example, a racemic mixture of monochloroflosequinan and the sulfone derivative of monochloroflosequinan were independently subjected to biochemical enzyme assays to determine their respective percent inhibition of a variety of phosphodiesterases (PDE1-PDE6). The methods used have been adapted from those described in the scientific literature, see Hidaka and Asano “Human blood platelet 3′:5′ cyclic nucleotide phosphodiesterase. Isolation of low-Km and high Km phosphodiesterase.” Biochem. Biophys. […] Unhydrolyzed cAMP was bound to AGI-X2 resin, and the remaining [^3H]adenosine in the aqueous phase was quantitated by scintillation counting. • PDE2: PDE2 partially purified from human platelets was used. […] Unhydrolyzed cAMP was bound to AGI-X2 resin, and the remaining [^3H]adenosine in the aqueous phase was quantitated by scintillation counting. • PDE3: PDE3 partially purified from human platelets was used. […] Unhydrolyzed cAMP was bound to AGI-X2 resin, and the remaining [^3H]adenosine in the aqueous phase was quantitated by scintillation counting. • PDE4: PDE4 partially purified from human U-937 pronocytic cells was used. […] Unhydrolyzed cAMP was bound to AGI-X2 resin, and the remaining [^3H]adenosine in the aqueous phase was quantitated by scintillation counting. • PDE5: PDE5 partially purified from human platelets was used. […]

PDE4 = PDE4 enzyme inhibition assay; format: biochemical, human; settings: 200 μM, 25° C., 1% DMSO vehicle
Description: as §1

Structure (SMILES): Cn1cc([S@+]([O-])CCl)c(=O)c2ccc(F)cc21 (single isomer, unassigned) [(+)-enantiomer of monochloroflosequinan]
- time of peak plasma concentrations ([1]; following oral administration): 1 to 2 h
- time of peak metabolite plasma levels ([1]; following oral dosage): about seven
- inhibition of PDE5 (PDE5; 200 μM): greater than 50%

Structure (SMILES): Cn1cc([S@@+]([O-])CCl)c(=O)c2ccc(F)cc21 (single isomer, unassigned) [(−)-enantiomer of monochloroflosequinan]
- inhibition of PDE4 (PDE4): greater than 50%

Structure (SMILES): Cn1cc([S+]([O-])C(Cl)Cl)c(=O)c2ccc(F)cc21 (centres unmarked) [dichloroflosequinan, 3-dichloromethylsulfinyl-7-fluoro-1-methyl-4-quinolone]
- inhibition of PDE5 (PDE5; varying concentrations): greater than 50%
